Values joined by “and” are separate entries in the source; they are usually repeats but may differ in a detail not shown here. Identical values can stand only once. Marks after values point to notes of the source that are not given here.
Experiments:
physchem [1] = test: physchem
[2] = pKa by continuous titration, apparatus of FIG. 8, optimised buffers, TFA or 1st derivative data processing; settings: for pKa (1st Deriv.): first derivative method
[3] = test solutes; potentiometric titration on Sirius PCA 101 instrument in 0.15 KCl
Experimental: (§1) The absorbance changes at 240 nm, 265 nm, 290 nm and 315 nm were recorded and the peak maxima of the 1st derivative plots determined. […] Compounds of known pKa were also determined as test solutes.

[4] = pKa by continuous titration, linear pH gradient, apparatus of FIG. 2, 1st derivative peak time read from standards calibration curve; assay type: physicochemical; settings: from standards calibration curve via time to peak maximum of 1st derivative, gradient over 4 minutes, FIG. 2 apparatus
Experimental: The following pKa determination experiment was performed on this apparatus.
The two buffers have a common component to which an acidic component is added to form buffer A and a basic component is added to form buffer B. The buffers were made up as follows:
The sample solution was kept constant at 20%. The HP1050 pump was used again with buffer B introduced via channel B and buffer A via channel C. The flow rate of the test mixture stream from the mixer to the detector was 1 cm^3 min^−1.
The calibration results are set out below: Time to peak maximum is from the start of the instrument cycle (when the autosampler first goes into a new sample container).

physchem [5] = test: physchem; remark: listed apart in the source
Experimental: as §1

[6] = cited from earlier work
[7] = Albert & Serjeant, 1984; corrected for an ionic strength of 0.15 M; cited from earlier work
[8] = run with calibration curve pH=−0.022×time+12.66

NCCCn1ccnc1 [1-(3-Aminopropyl)imidazole, 1-(3-Aminopropyl) imidazole]
pKa (physchem [1]): 5.73 ± 0.08
pKa (1st Deriv.) [2, 8]: 5.81 ± 0.40

Oc1ccccc1Cl [2-Cl phenol]
Known pKa [3]: 8.24
pKa Derived [4]: 8.15 and 8.16

Nc1cccc(C(=O)O)c1 [3-Aminobenzoic acid]
pKa (physchem [1]): 3.39 ± 0.08

Oc1cccc(Cl)c1 [3-Cl phenol]
Known pKa [3]: 8.81
pKa Derived [4]: 8.79 and 8.78

N#Cc1ccc(O)cc1 [4-CN phenol]
Known pKa [3]: 7.7
pKa Derived [4]: 7.62 and 7.58

Oc1ccc(Cl)cc1 [4-Cl phenol, 4-Chlorophenol]
pKa (physchem [1]): 9.03 ± 0.03
pKa (1st Deriv.) ([2]; run with calibration curve pH=−0.021×time+12.49): 9.16 ± 0.08
pKa (1st Deriv.) [2, 8]: 9.25 ± 0.07
pKa (TFA) ([2]; run with calibration curve pH=−0.022×time+12.66, target factor analysis): 9.04 ± 0.01
pKa (physchem [5]; 0.15 KCl solution): 9.14
pKa ([4]; buffered linear pH gradient (apparatus of FIG. 2), read-out: pKa Derived): 9.14
pKa Derived [4]: 9.13

O=[N+]([O-])c1ccc(O)cc1 [4-NO2phenol, p-nitrophenol]
pKa (physchem [5]; 0.15 KCl solution): 6.89
pKa (Standard Curve) ([6]; standards STD1, STD2 of Example 3): 6.869
pKa (calibration standards) ([6]; standards for calibration curves of the FIG. 8 runs): 6.869

NCc1ccccc1 [Benzylamine]
pKa (physchem [1]): 9.23 ± 0.1
pKa (lit. data) [7]: 9.34^a

O=C1OC(c2ccc(O)cc2)(c2ccc(O)cc2)c2ccccc21 [Phenolphthalein]
pKa (physchem [1]): 8.84 ± 0.05

O=C(O)Cc1ccccc1 [Phenylacetic acid]
pKa (physchem [1]): 4.34 ± 0.01
pKa (lit. data) [7]: 4.07^b

NCCc1ccccc1 [Phenylethylamine]
pKa (physchem [1]): 9.64 ± 0.07

NCCc1c[nH]c2ccc(O)cc12 [Serotonin]
pKa (physchem [1]): 10.09 ± 0.03
pKa (lit. data) [7]: 9.80^a and 10.04^a
pKa (1st Deriv.) [2, 8]: 10.03 ± 0.08

CC(C)NCC(O)c1ccc(NS(C)(=O)=O)cc1 (centres unmarked) [Sotalol]
pKa (physchem [1]): 7.96 ± 0.03

O=C(O)/C=C/c1ccccc1 [Trans-cinnamic acid]
pKa (physchem [1]): 4.15 ± 0.01
pKa (lit. data) [7]: 4.20^b

O=C(O)C/C=C/c1ccccc1 [Trans-styrylacetic acid]
pKa (physchem [1]): 4.57 ± 0.05

NCCc1c[nH]c2ccccc12 [Tryptamine]
pKa (physchem [1]): 9.67 ± 0.03
pKa (1st Deriv.) [2, 8]: 10.05 ± 0.10

O=C(O)c1ccccc1C(=O)O [phthalate 1, potassium hydrogen phthalate]
pKa (physchem [5]): 4.82

— patent US6913930B2, “Analytical method and apparatus therefor involving continuous titration” (Glaxo Wellcome Inc., priority 1997, dated 2005)
